# Measurements: PubChem BioAssay (NCI)
#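 Protocol summary: plate cells (96-well), add compound at 5 concentrations, incubate 48 h, interpolate endpoints linearly. GI50 = concentration required for 50% inhibition of growth. The concentration for full growth arrest is given as TGI.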
# Columns and labels:
# Experiment in all cases: inhibition of tumour cell growth, NCI panel, 48 h
# [1] = tested on: SNB-75 CNS
# [2] = tested on: MALME-3M melanoma
# [3] = tested on: MOLT-4 leukemia
# [4] = tested on: UACC-62 melanoma
# [5] = tested on: NCI-H522 lung
# [6] = tested on: MDA-MB-435
# [7] = tested on: SR leukemia
# [8] = tested on: MCF7 breast
# [9] = tested on: BT-549 breast
# [10] = tested on: HOP-92 NSCLC
# [11] = tested on: A498 renal
# [12] = tested on: OVCAR-5 ovarian
# [13] = tested on: OVCAR-3 ovarian
# [14] = tested on: MDA-MB-231 breast
# [15] = tested on: U251 CNS
# [16] = tested on: SK-MEL-28 melanoma
# [17] = tested on: T-47D breast
# [18] = tested on: SK-MEL-5 melanoma
# [19] = tested on: HS 578T breast
# [20] = tested on: A549 NSCLC
# [21] = tested on: HOP-62 NSCLC
# [22] = tested on: COLO 205 colon
# [23] = tested on: RXF 393 renal
# [24] = tested on: EKVX NSCLC
# [25] = tested on: PC-3 prostate
# [26] = tested on: KM12 colon
# [27] = tested on: LOX IMVI melanoma
# [28] = tested on: OVCAR-8 ovarian
# [29] = tested on: SF-539 CNS
# [30] = tested on: SK-OV-3 ovarian
# [31] = tested on: RPMI-8226 leukemia
# [32] = tested on: NCI/ADR-RES ovarian
# [33] = tested on: SW-620 colon
# [34] = tested on: CCRF-CEM leukemia
# [35] = tested on: NCI-H226 lung
# [36] = tested on: SF-295 CNS
# [37] = tested on: ACHN renal
# [38] = tested on: HCT-15 colon
# [39] = tested on: NCI-H460 lung
# [40] = tested on: DU-145 prostate
# [41] = tested on: HL-60(TB) leukemia
# [42] = tested on: SK-MEL-2 melanoma
# [43] = tested on: SF-268 CNS
# [44] = tested on: SN12C renal
# [45] = tested on: IGROV1 ovarian
# [46] = tested on: HCC-2998 colon
# [47] = tested on: TK-10 renal
# [48] = tested on: K-562 leukemia
# [49] = tested on: CAKI-1 renal
# [50] = tested on: OVCAR-4 ovarian
# [51] = tested on: UACC-257 melanoma
# [52] = tested on: SNB-19 CNS
smiles,measurement,setting,value
COc1cccc(CNCCN2C(=O)c3ccc4c5c(ccc(c35)C2=O)C(=O)N(CCNCc2cccc(OC)c2)C4=O)c1,GI50,[1],11.2 µM
same,TGI,[1],28 µM
same,GI50,[2],1.8 µM
same,TGI,[2],3.76 µM
same,GI50,[3],14.7 µM
same,TGI,[3],47.9 µM
same,GI50,[4],1.9 µM
same,TGI,[4],4 µM
same,GI50,[5],1.81 µM
same,TGI,[5],3.46 µM
same,GI50,[6],1.84 µM
same,TGI,[6],3.48 µM
same,GI50,[7],0.332 µM
same,TGI,[7],2.57 µM
same,GI50,[8],1.81 µM
same,TGI,[8],4.39 µM
same,GI50,[9],2.43 µM
same,TGI,[9],6.12 µM
same,GI50,[10],18.9 µM
same,TGI,[10],41.2 µM
same,GI50,[11],14.8 µM
same,TGI,[11],28.9 µM
same,GI50,[12],21.1 µM
same,TGI,[12],49.6 µM
same,GI50,[13],2.25 µM
same,TGI,[13],5.93 µM
same,GI50,[14],2.39 µM
same,TGI,[14],6.61 µM
same,GI50,[15],2.42 µM
same,TGI,[15],5.16 µM
same,GI50,[16],2.22 µM
same,TGI,[16],5.2 µM
same,GI50,[17],2.05 µM
same,TGI,[17],5.3 µM
same,GI50,[18],1.52 µM
same,TGI,[18],2.86 µM
same,GI50,[19],19 µM
same,TGI,[19],52.8 µM
same,GI50,[20],2.49 µM
same,TGI,[20],5.83 µM
same,GI50,[21],15 µM
same,TGI,[21],30.8 µM
same,GI50,[22],1.53 µM
same,TGI,[22],2.95 µM
same,GI50,[23],2.16 µM
same,TGI,[23],7.58 µM
same,GI50,[24],15.7 µM
same,TGI,[24],35.4 µM
same,GI50,[25],3.87 µM
same,TGI,[25],21.6 µM
same,GI50,[26],1.75 µM
same,TGI,[26],3.93 µM
same,GI50,[27],1.79 µM
same,TGI,[27],3.53 µM
same,GI50,[28],2.15 µM
same,TGI,[28],4.85 µM
same,GI50,[29],1.79 µM
same,TGI,[29],3.4 µM
same,GI50,[30],19.1 µM
same,TGI,[30],35.5 µM
same,GI50,[31],2.84 µM
same,TGI,[31],7.45 µM
same,GI50,[32],2.99 µM
same,TGI,[32],> 100 µM
same,GI50,[33],2.15 µM
same,TGI,[33],5.32 µM
same,GI50,[34],3.46 µM
same,TGI,[34],13.5 µM
same,GI50,[35],34 µM
same,TGI,[35],> 100 µM
same,GI50,[36],1.82 µM
same,TGI,[36],3.88 µM
same,GI50,[37],6.28 µM
same,TGI,[37],27.5 µM
same,GI50,[38],2.1 µM
same,TGI,[38],4.82 µM
same,GI50,[39],1.96 µM
same,TGI,[39],4.33 µM
same,GI50,[40],3.94 µM
same,TGI,[40],14.9 µM
same,GI50,[41],2.56 µM
same,TGI,[41],4.99 µM
same,GI50,[42],1.89 µM
same,TGI,[42],3.85 µM
same,GI50,[43],4.09 µM
same,TGI,[43],27 µM
same,GI50,[44],1.67 µM
same,TGI,[44],3.24 µM
same,GI50,[45],2.36 µM
same,TGI,[45],6.34 µM
same,GI50,[46],5.21 µM
same,TGI,[46],19.1 µM
same,GI50,[47],1.85 µM
same,TGI,[47],4.31 µM
same,GI50,[48],3.03 µM
same,TGI,[48],8.52 µM
same,GI50,[49],2.61 µM
same,TGI,[49],8.27 µM
same,GI50,[50],1.4 µM
same,TGI,[50],2.71 µM
same,GI50,[51],2.09 µM
same,TGI,[51],3.82 µM
same,GI50,[52],2.88 µM
same,TGI,[52],10.4 µM
